In ChEMBL document CHEMBL5380834, “Design, Synthesis, and Biological Evaluation of Androgen Receptor (AR) Antagonist-Heat Shock Protein 90 (Hsp90) Inhibitor Conjugates for Targeted Therapy of Castration-Resistant Prostate Cancer” (J Med Chem, 2023):
The source made the active and inactive calls. The rule behind the calls is not given here.

How the values were obtained:
LNCaP [1] = experiment: Downregulation of AR-regulated FKBP5 protein level in human LNCaP cells measured for 48 hrs in presence of AR agonist, R1881 in charcoal stripped serum by Western blot analysis; format: functional, cell-based; settings: dose 300-1000 nM
[2] = Toxicity in BALB/c nude mouse xenografted with human LNCaP cells assessed as animal weight loss at 2.5 mg/kg, ip administered once every 4th day for 3 weeks; format: organism-based; settings: in vivo, 504 h
LNCaP [3] = experiment: Downregulation of AR-regulated PSA protein level in human LNCaP cells measured for 48 hrs in presence of AR agonist, R1881 in charcoal stripped serum by Western blot analysis; format: functional, cell-based; settings: dose 300-1000 nM
LNCaP [4] = experiment: Antitumor activity against human LNCaP cells xenografted in BALB/c nude mouse assessed as downregulation of TMPRSS2 level at 5 mg/kg, ip administered once every 4th day for 3 weeks and measured at 2 hrs post dose; format: functional, organism-based
CWR22R [5] = experiment: Antitumor activity against human 22Rv1 cells xenografted in BALB/c nude mouse assessed as reduction in tumor growth at 5 mg/kg, ip administered once every 4th day for 3 weeks; format: functional, organism-based
CWR22R [6] = experiment: Induction of apoptosis in human 22Rv1 cells assessed as increase in caspase-3 level at 1 uM measured after 48 hrs by Western blot analysis; format: functional, cell-based
[7] = Downregulation of AR-regulated PSA protein level in human LNCaP cells at 300 nM measured for 48 hrs in presence of AR agonist, R1881 in charcoal stripped serum by Western blot analysis relative to control; format: functional
[8] = tested on: Androgen receptor (Homo sapiens), P10275 [UNDEFINED MUTATION]; experiment: Induction of AR-V7 degradation in human 22Rv1 cells at 100 nM by Western blot analysis; format: cell-based; settings: time <= 48.0 hrs, TDE = time-dependent effect
LNCaP [9] = experiment: Antitumor activity against human LNCaP cells xenografted in BALB/c nude mouse assessed as downregulation of PSA level at 5 mg/kg, ip administered once every 4th day for 3 weeks and measured at 2 hrs post dose; format: functional, organism-based
LNCaP [10] = experiment: Downregulation of AR-regulated TMPRSS2 protein level in human LNCaP cells measured for 48 hrs in presence of AR agonist, R1881 in charcoal stripped serum by Western blot analysis; format: functional, cell-based; settings: dose 300-1000 nM
[11] = Downregulation of AR-regulated TMPRSS2 protein level in human LNCaP cells at 300 nM measured for 48 hrs in presence of AR agonist, R1881 in charcoal stripped serum by Western blot analysis relative to control; format: functional
CWR22R [12] = experiment: Induction of apoptosis in human 22Rv1 cells assessed as increase in PARP level at 1 uM measured after 48 hrs by Western blot analysis; format: functional, cell-based
[13] = tested on: Androgen receptor (Homo sapiens), P10275 [UNDEFINED MUTATION]; experiment: Induction of AR-V7 degradation in human 22Rv1 cells measured upto 24 hrs by Western blot analysis; format: cell-based; settings: dose 1000.0 nM
[14] = Biodistribution in BALB/c mouse plasma xenografted with human 22Rv1 cells at 2.5 mg/kg, iv measured at 0.5 to 1 hrs; format: ADME, organism-based, CWR22R; settings: in vivo, time 0.5-1 hrs
[15] = Biodistribution in BALB/c mouse prostate gland xenografted with human 22Rv1 cells at 2.5 mg/kg, iv measured at 0.5 to 1 hrs; format: ADME, organism-based, CWR22R; settings: in vivo, time 0.5-1 hrs
[16] = Biodistribution in BALB/c mouse tumor xenografted with human 22Rv1 cells at 2.5 mg/kg, iv measured at 0.5 to 1 hrs; format: ADME, organism-based, Neoplasm, CWR22R; settings: in vivo, time 0.5-1 hrs
LNCaP [17] = experiment: Induction of apoptosis in human LNCaP cells assessed as increase in PARP level at 1 uM measured after 48 hrs by Western blot analysis; format: functional, cell-based
CWR22R [18] = experiment: Antitumor activity against human 22Rv1 cells xenografted in BALB/c nude mouse assessed as tumor growth inhibition at 2.5 mg/kg, ip administered once every 4th day for 3 weeks; format: functional; settings: 22Rv1, 504 h, read-out: TGI
[19] = Biodistribution in BALB/c mouse muscle tissue xenografted with human 22Rv1 cells at 2.5 mg/kg, iv measured at 0.5 to 1 hrs; format: ADME, organism-based, CWR22R; settings: in vivo, time 0.5-1 hrs
[20] = Downregulation of AR-regulated FKBP5 protein level in human LNCaP cells at 300 nM measured for 48 hrs in presence of AR agonist, R1881 in charcoal stripped serum by Western blot analysis relative to control; format: functional
[21] = target: T1, Androgen receptor (Homo sapiens) (UniProt P10275); experiment: Induction of full length AR degradation in human LNCaP cells assessed as maximum degradation at 100 nM measured after 12 hrs relative to control; format: cell-based
T1 sequence (whole entry): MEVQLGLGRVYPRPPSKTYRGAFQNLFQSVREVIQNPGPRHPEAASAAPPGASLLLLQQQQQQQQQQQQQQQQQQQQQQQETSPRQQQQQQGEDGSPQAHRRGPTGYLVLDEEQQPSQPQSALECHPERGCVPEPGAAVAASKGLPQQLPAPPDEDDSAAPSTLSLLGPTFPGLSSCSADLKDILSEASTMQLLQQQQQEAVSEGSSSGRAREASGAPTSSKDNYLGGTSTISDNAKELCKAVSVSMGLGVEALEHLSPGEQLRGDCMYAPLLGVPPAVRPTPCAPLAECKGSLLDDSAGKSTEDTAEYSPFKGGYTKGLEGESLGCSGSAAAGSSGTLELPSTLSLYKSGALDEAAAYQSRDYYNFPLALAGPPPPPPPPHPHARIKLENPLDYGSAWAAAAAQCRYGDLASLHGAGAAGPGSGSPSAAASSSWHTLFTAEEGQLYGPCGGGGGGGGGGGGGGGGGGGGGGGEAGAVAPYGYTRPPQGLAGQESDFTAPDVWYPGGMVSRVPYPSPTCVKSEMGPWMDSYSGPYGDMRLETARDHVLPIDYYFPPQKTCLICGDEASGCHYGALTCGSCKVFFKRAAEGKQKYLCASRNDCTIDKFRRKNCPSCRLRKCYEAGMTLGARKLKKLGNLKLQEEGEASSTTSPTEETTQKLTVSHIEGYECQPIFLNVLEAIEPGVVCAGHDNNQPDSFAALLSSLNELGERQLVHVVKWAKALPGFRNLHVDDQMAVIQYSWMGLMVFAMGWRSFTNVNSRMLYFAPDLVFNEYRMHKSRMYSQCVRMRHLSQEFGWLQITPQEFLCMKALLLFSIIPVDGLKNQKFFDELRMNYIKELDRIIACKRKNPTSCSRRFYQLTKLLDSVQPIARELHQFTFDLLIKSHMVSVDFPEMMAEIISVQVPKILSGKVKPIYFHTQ

[22] = Biodistribution in BALB/c mouse spleen xenografted with human 22Rv1 cells at 2.5 mg/kg, iv measured at 0.5 to 1 hrs; format: ADME, organism-based, CWR22R; settings: in vivo, time 0.5-1 hrs
[23] = Toxicity in ICR mouse assessed as heart damage at 30 to 50 mg/kg, iv administered every second day for 14 days; format: organism-based; settings: in vivo, 336 h, dose 30-50 mg/kg, time 14 day
[24] = Biodistribution in BALB/c mouse tumor xenografted with human 22Rv1 cells at 2.5 mg/kg, iv measured at 12 hrs; format: ADME, organism-based, Neoplasm, CWR22R; settings: in vivo
[25] = Biodistribution in BALB/c mouse lung xenografted with human 22Rv1 cells at 2.5 mg/kg, iv measured at 0.5 to 1 hrs; format: ADME, organism-based, CWR22R; settings: in vivo, time 0.5-1 hrs

Activity [8]: Tde
Activity [13]: Dose-Dependent Effect
Drug uptake [14]: Active
Drug uptake [15]: Active
Drug uptake [16]: Active
Drug uptake [19]: Active
Activity [21]: > 90%
Drug uptake [22]: Active
Drug uptake [24]: Active
Drug uptake [25]: Active
SMILES: CC(C)c1cc(-c2n[nH]c(=O)n2-c2ccc(CN3CCN(CC4CCN(c5ccc(C(=O)N[C@H]6CC[C@H](Oc7ccc(C#N)c(Cl)c7)CC6)nn5)CC4)CC3)cc2)c(O)cc1O
Activity (LNCaP [1]): Dose-Dependent Effect
Activity [2]: 10%
Activity (LNCaP [3]): Dose-Dependent Effect
Activity (LNCaP [4]): Active
Activity (CWR22R [5]): Active
Activity (CWR22R [6]): Active
Activity [7]: >50%
Activity (LNCaP [9]): Active
Activity (LNCaP [10]): Dose-Dependent Effect
Activity [11]: >50%
Activity (CWR22R [12]): Active
Activity (LNCaP [17]): Active
inhibition in vivo at 2.5 mg/kg (CWR22R [18]): 50%
Activity [20]: >50%
Activity [23]: Non-Toxic
